Patent US7615356B2, “Ion channel assay methods” (Vertex Pharmaceuticals (San Diego) LLC, priority 2000, dated 2009)
Entries after “also recorded” stand apart in the source; their conditions may differ. Read-outs that look alike come from different tables or passages of the source.

Experiments:
[1] = test system: TTX-resistant Nav channels; conditions: cited from earlier work
[2] = target: endogenous NaV channels of Chinese Hamster Ovary cells (Nav 1.2a) (Cricetulus griseus, UniProt A0A8C2MK62); assay: Use-dependent block, repetitive electrical stimulation at 1 Hz, CHO cells; type: cell-based
[3] = target: Nav1.8 (UniProt Q9Y5Y9); assay: Induced spontaneous firing of Nav1.8 expressing cells, high-frequency monophasic pulses; type: cell-based
[4] = test system: voltage-activated chloride and potassium channels of wild-type HEK-293 cells
[5] = test system: HL5 cardiac muscle cells; type: cell-based
[6] = target: voltage dependent sodium channel (NaV1) endogenously expressed in wild type CHO cells (Cricetulus griseus, UniProt A0A8C2MK62)
[7] = test system: NaV3 sodium channel
[8] = target: Nav 1.2a (Rattus norvegicus, UniProt P04775, N209D); conditions: published; cited from earlier work
[9] = target: potassium inward rectifier channel IRK1 (Rattus norvegicus, UniProt Q64273)
[10] = test system: sodium channels in dorsal root ganglion (DRG) neurons; assay: Dorsal root ganglion neuron assay, electrical stimulation at different external potassium; type: cell-based, rat; conditions: before and after addition of 16 mM potassium
Experimental: We have developed a dorsal root ganglion (DRG) neuron assay on the electrical stimulation with optical detection platform that allows us to detect and quantify voltage dependent blockers of the sodium channels in these neurons. The DRG neurons were dissociated from neonatal rat pups and stained with FRET voltage sensing dyes. The neurons were then placed in the middle of the well on a 96 well plate and preincubated with varying concentrations of the test compound. Electrical stimulation was applied and the resulting response recorded by the plate reader. Dose response plots were then constructed for each compound tested. Increased levels of potassium were then added to depolarize the neurons and move more of the sodium channels into the inactivated state. […] This estimates the degree of voltage or state dependence for these compounds. […] As shown, the high potassium levels depolarize the cells. The compounds' block is voltage dependent, a type of use-dependent activity. […] This example illustrates also the use of this method with primary neurons.

[11] = target: Nav1.8 (UniProt Q9Y5Y9); assay: Paired-pulse train stimulation, recovery from block, cells expressing Nav1.8; conditions: for IC50: approximate, from previous experiment
[12] = target: N-type calcium channel (Homo sapiens, UniProt Q00975); assay: Hexyl oxonol assay for use-dependent blockers of CaV; type: cell-based; conditions: 5 μM
Experimental: Assays can also be developed using fast membrane potential sensors, such as DISBAC6(3) and CC2-DMPE voltage-sensitive FRET probes, to detect use-dependent compounds for voltage-gated Ca targets. The following illustrative example is for an N-type calcium channel using hardware compatible with 96 well plates.
Prepare a solution of 2× CC2DMPE and DISBAC6(3) by Vortexing together 10 mM CC2DMPE (in DMSO) and 10 mM DISBAC6(3) (in DMSO) with an equivalent volume of 10% pluronic (in DMSO). Vortex in required amount of bath. Each cell plate will require 5 ml of this solution. Wash plate with a plate washer leaving a residual volume of 50 μl. Add 50 μL of 2× CC2DMPE to wells. Resulting concentrations of dyes will be 4 μM CC2-DMPE and 1.25 μM DISBAC6(3). Stain for 30 minutes in the dark at RT. The test compounds are prepared at 2× concentration in extracellular ringer solution and added to wells containing stained cells. Stimulation parameters such as stimulation frequency, pulse duration, stimulation voltage can be easily manipulated to elicit desired responses.
FIG. 40 illustrates an example of how a use-dependent compound such as mibefradil can be detected using this hexyl assay.

[13] = test system: NaV4 sodium channel; type: cell-based; conditions: HEK-293 NaV4; 33 V/cm, 10 ms/phase biphasic, 15 Hz burst for 1.5 seconds; read-out: estimated EC50 (Hill function fit)
Description: For this experiment, electrical stimulation parameters were E=33 V/cm, 10 ms/phase biphasic stimulation, 15 Hz burst for 1.5 seconds.
To determine whether the present method is generally applicable to a wide range of different sodium channels, HEK-293 cells were stably transfected with another voltage dependent sodium channel, hereinafter referred to as NaV4. These cells were transfected, selected and loaded with FRET dyes as described in section VI and Example 8.

[14] = 1 Hz stimulation, 1st peak response
[15] = 1 Hz stimulation, 20th peak response
[16] = read-out: IC50 @ 1st peak, 1 Hz stimulation, 1st peak response
[17] = read-out: IC50 @ 20th peak, 1 Hz stimulation, 20th peak response

endogenous NaV channels of Chinese Hamster Ovary cells (Nav 1.2a), sequence (A0A8C2MK62 entry or part of it): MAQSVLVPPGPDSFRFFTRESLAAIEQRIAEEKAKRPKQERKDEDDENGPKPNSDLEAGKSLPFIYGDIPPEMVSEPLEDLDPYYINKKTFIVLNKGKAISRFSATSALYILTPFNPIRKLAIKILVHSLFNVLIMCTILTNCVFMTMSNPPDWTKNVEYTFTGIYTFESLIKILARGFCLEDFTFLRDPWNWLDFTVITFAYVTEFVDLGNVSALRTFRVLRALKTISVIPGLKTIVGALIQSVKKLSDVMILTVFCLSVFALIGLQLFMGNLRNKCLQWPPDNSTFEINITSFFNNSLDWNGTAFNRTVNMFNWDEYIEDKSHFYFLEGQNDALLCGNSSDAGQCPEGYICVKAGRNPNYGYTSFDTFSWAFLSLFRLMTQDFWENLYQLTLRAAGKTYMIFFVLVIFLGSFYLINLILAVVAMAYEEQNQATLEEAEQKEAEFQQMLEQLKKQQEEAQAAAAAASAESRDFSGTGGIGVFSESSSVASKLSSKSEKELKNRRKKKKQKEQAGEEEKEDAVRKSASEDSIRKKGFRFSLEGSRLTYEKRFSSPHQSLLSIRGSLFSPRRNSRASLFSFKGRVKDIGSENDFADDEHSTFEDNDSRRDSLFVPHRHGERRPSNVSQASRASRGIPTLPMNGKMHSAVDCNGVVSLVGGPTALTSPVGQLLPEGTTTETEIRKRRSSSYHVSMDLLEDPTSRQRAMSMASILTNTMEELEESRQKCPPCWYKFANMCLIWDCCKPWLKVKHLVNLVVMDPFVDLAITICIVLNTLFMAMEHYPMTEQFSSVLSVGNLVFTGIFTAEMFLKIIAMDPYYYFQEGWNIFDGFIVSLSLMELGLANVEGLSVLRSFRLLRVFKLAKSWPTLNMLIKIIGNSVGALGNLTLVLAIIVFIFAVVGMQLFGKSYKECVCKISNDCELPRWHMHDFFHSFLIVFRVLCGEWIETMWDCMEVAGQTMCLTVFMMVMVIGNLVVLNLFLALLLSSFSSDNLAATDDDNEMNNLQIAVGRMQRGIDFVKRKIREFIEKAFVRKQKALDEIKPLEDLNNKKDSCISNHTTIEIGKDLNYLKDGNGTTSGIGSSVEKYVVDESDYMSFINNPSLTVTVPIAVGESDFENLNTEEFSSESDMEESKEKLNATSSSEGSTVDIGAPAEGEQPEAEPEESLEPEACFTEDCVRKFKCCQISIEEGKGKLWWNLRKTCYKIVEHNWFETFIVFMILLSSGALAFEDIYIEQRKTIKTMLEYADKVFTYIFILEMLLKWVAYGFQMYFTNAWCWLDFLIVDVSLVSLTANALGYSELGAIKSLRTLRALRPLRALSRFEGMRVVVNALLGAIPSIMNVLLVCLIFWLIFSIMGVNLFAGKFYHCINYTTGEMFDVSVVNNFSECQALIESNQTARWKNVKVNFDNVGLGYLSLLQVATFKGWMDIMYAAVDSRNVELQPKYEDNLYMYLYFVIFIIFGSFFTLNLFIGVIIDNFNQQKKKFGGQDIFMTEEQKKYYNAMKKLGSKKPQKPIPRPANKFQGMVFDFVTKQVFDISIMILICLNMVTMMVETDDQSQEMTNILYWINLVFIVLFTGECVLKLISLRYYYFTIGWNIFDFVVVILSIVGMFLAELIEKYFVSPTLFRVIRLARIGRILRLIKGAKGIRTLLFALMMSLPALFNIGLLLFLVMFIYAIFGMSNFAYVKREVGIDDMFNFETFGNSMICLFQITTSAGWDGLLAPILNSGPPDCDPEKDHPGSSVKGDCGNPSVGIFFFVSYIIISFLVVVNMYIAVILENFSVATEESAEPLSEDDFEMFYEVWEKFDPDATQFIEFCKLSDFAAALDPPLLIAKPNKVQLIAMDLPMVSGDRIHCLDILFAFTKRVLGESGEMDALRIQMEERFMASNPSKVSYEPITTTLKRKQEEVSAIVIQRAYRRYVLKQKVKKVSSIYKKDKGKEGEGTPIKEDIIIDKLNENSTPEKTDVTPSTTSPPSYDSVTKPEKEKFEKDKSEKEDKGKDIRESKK
voltage dependent sodium channel (NaV1) endogenously expressed in wild type CHO cells, sequence (A0A8C2MK62 1-2006): as the sequence (A0A8C2MK62 entry or part of it) above
Nav 1.2a, sequence (P04775 whole entry N209D): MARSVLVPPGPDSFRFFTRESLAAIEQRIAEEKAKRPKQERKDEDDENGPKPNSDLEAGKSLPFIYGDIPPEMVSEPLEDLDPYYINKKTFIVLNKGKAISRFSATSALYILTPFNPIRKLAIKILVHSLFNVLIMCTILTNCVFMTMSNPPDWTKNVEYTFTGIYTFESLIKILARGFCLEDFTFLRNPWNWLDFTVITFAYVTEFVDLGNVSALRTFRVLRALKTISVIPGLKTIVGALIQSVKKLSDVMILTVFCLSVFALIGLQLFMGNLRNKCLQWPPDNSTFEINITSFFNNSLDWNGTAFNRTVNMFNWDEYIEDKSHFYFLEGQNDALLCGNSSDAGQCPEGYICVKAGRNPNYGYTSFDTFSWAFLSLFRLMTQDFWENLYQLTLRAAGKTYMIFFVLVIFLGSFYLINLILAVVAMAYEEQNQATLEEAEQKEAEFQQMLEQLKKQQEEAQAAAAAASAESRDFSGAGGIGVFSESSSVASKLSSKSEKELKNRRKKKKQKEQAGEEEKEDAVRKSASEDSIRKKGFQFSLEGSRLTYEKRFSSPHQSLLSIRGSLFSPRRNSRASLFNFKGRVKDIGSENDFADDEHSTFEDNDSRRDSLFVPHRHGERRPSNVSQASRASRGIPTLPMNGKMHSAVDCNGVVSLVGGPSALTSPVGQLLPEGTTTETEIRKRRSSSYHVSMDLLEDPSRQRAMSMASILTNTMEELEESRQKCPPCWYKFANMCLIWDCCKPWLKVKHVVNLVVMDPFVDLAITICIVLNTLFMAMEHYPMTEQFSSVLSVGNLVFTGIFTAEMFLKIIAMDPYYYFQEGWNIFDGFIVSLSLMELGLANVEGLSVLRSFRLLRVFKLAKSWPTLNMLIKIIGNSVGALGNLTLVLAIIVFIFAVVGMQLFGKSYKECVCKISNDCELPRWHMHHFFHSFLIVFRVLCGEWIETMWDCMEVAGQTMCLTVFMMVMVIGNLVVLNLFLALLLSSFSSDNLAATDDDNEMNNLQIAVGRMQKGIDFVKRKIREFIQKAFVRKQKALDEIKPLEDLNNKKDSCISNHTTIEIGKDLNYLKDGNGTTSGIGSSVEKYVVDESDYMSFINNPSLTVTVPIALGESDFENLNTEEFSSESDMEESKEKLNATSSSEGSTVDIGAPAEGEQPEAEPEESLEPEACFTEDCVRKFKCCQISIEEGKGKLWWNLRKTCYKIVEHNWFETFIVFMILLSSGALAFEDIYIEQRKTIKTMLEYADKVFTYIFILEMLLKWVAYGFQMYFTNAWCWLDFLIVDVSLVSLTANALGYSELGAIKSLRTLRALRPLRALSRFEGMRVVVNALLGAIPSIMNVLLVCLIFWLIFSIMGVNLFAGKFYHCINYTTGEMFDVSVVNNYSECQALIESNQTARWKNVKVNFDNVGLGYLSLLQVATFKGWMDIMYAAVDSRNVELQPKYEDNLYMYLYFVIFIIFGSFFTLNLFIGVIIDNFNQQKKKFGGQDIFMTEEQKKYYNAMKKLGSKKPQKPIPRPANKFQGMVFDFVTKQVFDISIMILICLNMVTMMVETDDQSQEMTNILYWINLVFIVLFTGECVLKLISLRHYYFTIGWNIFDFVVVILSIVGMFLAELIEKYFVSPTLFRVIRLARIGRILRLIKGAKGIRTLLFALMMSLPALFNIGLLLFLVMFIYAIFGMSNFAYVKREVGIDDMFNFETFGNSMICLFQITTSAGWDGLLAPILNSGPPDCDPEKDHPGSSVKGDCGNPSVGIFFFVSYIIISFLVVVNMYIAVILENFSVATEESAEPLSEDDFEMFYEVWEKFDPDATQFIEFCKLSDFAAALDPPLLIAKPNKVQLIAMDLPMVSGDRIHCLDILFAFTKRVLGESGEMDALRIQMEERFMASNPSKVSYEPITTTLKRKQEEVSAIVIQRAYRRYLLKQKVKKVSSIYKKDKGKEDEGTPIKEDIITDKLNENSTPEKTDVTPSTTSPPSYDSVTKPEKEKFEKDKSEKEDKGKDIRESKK
potassium inward rectifier channel IRK1, sequence (Q64273 whole entry): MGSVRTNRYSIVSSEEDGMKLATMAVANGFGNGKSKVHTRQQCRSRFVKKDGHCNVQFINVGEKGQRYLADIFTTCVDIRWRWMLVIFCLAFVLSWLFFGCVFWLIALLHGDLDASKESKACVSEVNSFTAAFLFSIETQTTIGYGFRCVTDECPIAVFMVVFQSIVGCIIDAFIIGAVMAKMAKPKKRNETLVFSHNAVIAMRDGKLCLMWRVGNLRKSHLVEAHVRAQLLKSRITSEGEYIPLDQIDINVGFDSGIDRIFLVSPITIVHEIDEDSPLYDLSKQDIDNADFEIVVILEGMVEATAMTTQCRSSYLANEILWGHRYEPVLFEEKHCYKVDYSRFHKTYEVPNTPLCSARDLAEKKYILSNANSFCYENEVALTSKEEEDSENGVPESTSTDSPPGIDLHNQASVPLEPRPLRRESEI

In the case of CCCCN1CCCCC1C(=O)Nc1c(C)cccc1C (centres unmarked) [Bupivacaine], the “firing rate in neuron slice preparation” value [1] is given as “slower firing rate”.
For CCN(CC)CC(=O)Nc1c(C)cccc1C [Lidocaine], the “use-dependent block of endogenous NaV channels” value [2] is given as “only minor or no use-dependent block”, the “effect on induced spontaneous firing” value [3] is given as “gradually increased the interspike interval” and the “firing rate in neuron slice preparation” value [1] is given as “slower firing rate”.
For CC[N+](CC)(CC)CC [TEA, Tetraethylammonium], the “effect on the negative voltage response” value [4] was “partially blocks”.
For NC1=N[C@H](O)[C@H]2[C@H]3O[C@]4(O)O[C@@H]([C@@H](O)[C@@]2(N1)[C@@H]4O)[C@]3(O)CO [TTX, tetrodotoxin], the “use-dependent block of endogenous NaV channels” value [2] was “only minor or no use-dependent block; also recorded: least use-dependent”, the “effect on the positive response” value [5] was “partially blocks” and the “sustained signal above 50 V/cm” value [5] was “unaffected”. The Hill coefficient [6] was 1.47, the “block of the effect of electrical stimulation” value [6] was “completely block” and the EC50 ([6]; read-out: EC50 (Hill function fit to dose response)) was 0.009 µM. The EC50 ([7]; read-out: EC50 (Hill function fit)) was 0.025 µM.
In the case of CN(C)CCC=C1c2ccccc2CCc2ccccc21 [amitriptyline], the “Hill coeff. @ 1st peak” value [2] is reported as 2.65, the “Hill coeff. @ 20th peak” value [2] is reported as 1.07 and the “UDI (1 Hz), ratio of IC50(1st response) over IC50(20th response)” value (“UDI (1 Hz), ratio of IC50(1st response)” below) [2] is reported as 3.24. The IC50 ([2]; read-out: IC50 @ 1st peak) was 5.19 ± 1.57 µM, the IC50 ([2]; read-out: IC50 @ 20th peak) was 1.6 ± 0.38 µM and the IC50 [8] was 5.5 µM.
In the case of [Ba+2].[Cl-].[Cl-] [barium chloride], the “voltage change during stimulation with block” value [9] is reported as “no detectable voltage change”.
For CCCCOc1cc(C(=O)NCCN(CC)CC)c2ccccc2n1 [dibucaine], the “UDI (1 Hz), ratio of IC50(1st response)” value ([2]; 1 Hz for 20 seconds) was 2.36, the “Hill coeff. @ 1st peak” value [2, 14] was 2.35 and the “Hill coeff. @ 20th peak” value [2, 15] was 1.19. It also gave an IC50 [2, 16] of 1.19 ± 0.22 µM and an IC50 [2, 17] of 0.51 ± 0.11 µM.
With Nc1nnc(-c2cccc(Cl)c2Cl)c(N)n1 [lamotrigine] the “effect on induced spontaneous firing” value [3] was “gradually increased the interspike interval”, the “shift of dose response curve after elevated potassium” value [10] was “leftward shifted” and the IC50 [11] was about 50 µM.
For Cc1cccc(C)c1OCC(C)N (centres unmarked) [mexiletine], the “Hill coeff. @ 1st peak” value [2] was 3.07, the “Hill coeff. @ 20th peak” value [2] was 0.98 and the “UDI (1 Hz), ratio of IC50(1st response)” value [2] was 2.59. The IC50 ([2]; read-out: IC50 @ 1st peak) was 58.1 ± 11 µM, the IC50 ([2]; read-out: IC50 @ 20th peak) was 22.5 ± 5.31 µM and the IC50 [8] was 21 to 533 µM.
In the case of COCC(=O)O[C@]1(CCN(C)CCCc2nc3ccccc3[nH]2)CCc2cc(F)ccc2[C@@H]1C(C)C [mibefradil], the “change in response lineshape” value [12] is reported as “use-dependent block”.
In the case of CCCCNc1ccc(C(=O)OCCN(C)C)cc1 [tetracaine], the EC50 [13] is reported as 35 µM, the “UDI (1 Hz), ratio of IC50(1st response)” value ([2]; 1 Hz for 20 seconds) is reported as 8.40 and the “use-dependent block of endogenous NaV channels” value ([2]; 1 Hz for 20 seconds, in words) is reported as “decreased ratio of last peak response over first peak response and more additional block than TTX and most”. For the same compound, the “Hill coeff. @ 1st peak” value [2, 14] was 1.81, the “Hill coeff. @ 20th peak” value [2, 15] was 0.66 and the IC50 [2, 16] was 2.77 ± 1.23 µM. For the same compound, the IC50 [2, 17] was 0.33 ± 0.2 µM, the “shift of dose response curve after elevated potassium” value [10] was “leftward shifted” and the EC50 ([7]; read-out: EC50 (fit to dose-response curve), HEK-293 NaV3, 33 V/cm, 10 ms/phase biphasic, 15 Hz burst for 1.5 seconds) was 11 µM. The “time to recover from use-dependent block” value ([11]; 4 μM) was “approximately 1000 ms” and the IC50 [11] was about 4 µM.
For COC(=O)[C@@H]1[C@H]2C[C@H]3c4[nH]c5ccccc5c4CCN3C[C@@H]2CC[C@@H]1O [yohimbine], the “UDI (1 Hz), ratio of IC50(1st response)” value ([2]; 1 Hz for 20 seconds) was 5.67, the “Hill coeff. @ 1st peak” value [2, 14] was 2.05 and the IC50 ([2]; 1 Hz stimulation, 1st peak response, read-out: IC50 @ 1st peak) was 26.7 ± 7.26 µM. The “Hill coeff. @ 20th peak” value [2, 15] was 0.99 and the IC50 ([2]; 1 Hz stimulation, 20th peak response, read-out: IC50 @ 20th peak) was 4.7 ± 1.94 µM.
